Legend:
[1] = Extraction of ethanol from an aqueous solution by ionic liquid; assay type: physicochemical; details: 5 vol % ionic liquid; for g/L ethanol left in solution / mM Ethanol (in solution after extraction): 3 mL aqueous solution, about 31 g/L ethanol, overnight equilibration; for g/L ethanol left in solution: control 30.2; for mM Ethanol (in solution after extraction): control 655; for % EthOH Extracted: percentage of alcohol remaining in control
Procedure: (§2) The extraction of ethanol and isobutanol from an aqueous solution by selected ionic liquids was evaluated. […] Ethanol and isobutanol concentration in the solution was measured using HPLC as described above following thorough mixing and overnight equilibration of the contents of the vial.

[2] = system: Lactobacillus fermentum (ATCC 14931); assay: Glucose Uptake Index (GUI) of culture grown with ionic liquid; assay type: cell-based; details: 5% (v/v) ionic liquid, 16 hours at 30° C., GUI of control without ionic liquid 55.9
Procedure: (§1) After 24 hours the test tube was removed and used immediately.

[3] = system: Lactobacillus zeae (ATCC 15820); assay: as above; assay type: cell-based; details: 5% (v/v) ionic liquid, 16 hours at 30° C., GUI of control without ionic liquid 61.9
Procedure: as §1

[4] = Extraction of isobutanol from an aqueous solution by ionic liquid; assay type: physicochemical; details: 5 vol % ionic liquid; for g/L isobutanol left in solution / mM isobutanol (in solution after extraction): 3 mL aqueous solution, about 31 g/L isobutanol, overnight equilibration; for g/L isobutanol left in solution: control 32.3; for mM isobutanol (in solution after extraction): control 436; for % isobutanol Extracted: percentage of alcohol remaining in control
Procedure: as §2

Compound	g/L ethanol left in solution [1]	mM Ethanol (in solution after extraction) [1]	% EthOH Extracted [1]	GUI of Sample (Glucose Utilization Index in the presence of ionic liquid phase) [2]	GUI of Sample (Glucose Utilization Index in the presence of ionic liquid phase) [3]	g/L isobutanol left in solution [4]	mM isobutanol (in solution after extraction) [4]	% isobutanol Extracted [4]
1-Butyl-3-methylimidazolium levulinate [[BMIM] [Lev]]	27.5 g/L	596 mM	8.95%					
1-Ethyl-3-methylimidazolium levulinate [[EMIM] [Lev]]				32.3	41.4			
CC1CCC(=O)N1CC[N+](C)(C)CCO.O=S(=O)([N-]S(=O)(=O)C(F)(F)F)C(F)(F)F (centres unmarked) [[MeDHEAP] [Tf2N], 1-(N,N,N-dimethyl(hydroxyethyl)aminoethyl)-5-methylpyrrolidone-2-one bis(trifluoromethane)sulfonamide]						30.9 g/L	417 mM	4.68%
CCOCC[N+](C)(C)CCN1C(=O)CCC1C (centres unmarked) [[MeDMEEAP] [HFPS]] [1-(N,N,N-dimethyl(ethylethoxy)aminoethyl)-5-methyl-pyrrolidine-2-one hexafluoropropanesulfonate]	30.2 g/L	656 mM	0.00%	34.5	46.9	31.3 g/L	422 mM	3.38%
CCOCC[N+](C)(C)CCN1C(=O)CCC1C (centres unmarked) [[MeDMEEAP] [Tf2N]] [1-(N,N,N-dimethyl(ethylethoxy)aminoethyl)-5-methyl-pyrrolidine-2-one bis(trifluoromethane)-sulfonamide]	29.4 g/L	637 mM	2.66%	37.6	49.5	29.5 g/L	398 mM	9.48%
COCC[N+](C)(C)CCN1C(=O)CCC1C (centres unmarked) [[MeDMMEAP] [HFPS], 1-(N,N,N-dimethyl(methylethoxy)aminoethyl)-5-methylpyrrolidin-2-one hexafluoropropanesulfonate]	29.7 g/L	645 mM	1.48%	31.3	45.1	31.4 g/L	423 mM	3.00%
CCC[N+](C)(C)CCN1C(=O)CCC1C.O=S(=O)([N-]S(=O)(=O)C(F)(F)F)C(F)(F)F (centres unmarked) [[MeDMPAP] [Tf2N], 1-(N,N,N-dimethylpropylaminoethyl)-5-methylpyrrolidone-2-one bis(trifluoromethane)sulfonamide]						28.7 g/L	387 mM	12.7%
COCC[N+](C)(C)CCN1C(=O)CCC1C.O=S(=O)([N-]S(=O)(=O)C(F)(F)F)C(F)(F)F (centres unmarked) [[[MeDMMEAP] [Tf2N], 1-(N,N,N-dimethyl(methylethoxy)aminoethyl)-5-methylpyrrolidone-2-one bis(trifluoromethane)sulfonamide]	29.6 g/L	643 mM	1.88%			28.8 g/L	389 mM	12.1%

Source: patent US20100143992A1, “Process for Fermentive Preparation of Alcohols and Recovery of Product” (E. I du Pont de Nemours and Company, priority 2008, published 2010)
